In PubChem BioAssay (NCI):
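Each compound was tested at five concentrations against cells in 96-well plates for 48 hours. GI50 = concentration required for 50% inhibition of growth. At the TGI there is no net growth.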

What was measured:
Test in all cases: growth of human tumour cells (NCI), 48 h
ACHN renal = system: ACHN renal
CAKI-1 renal = system: CAKI-1 renal
HL-60(TB) leukemia = system: HL-60(TB) leukemia
M14 melanoma = system: M14 melanoma
NCI-H23 lung = system: NCI-H23 lung
SK-MEL-2 melanoma = system: SK-MEL-2 melanoma
SNB-75 CNS = system: SNB-75 CNS
SR leukemia = system: SR leukemia
IGROV1 ovarian = system: IGROV1 ovarian
NCI-H226 lung = system: NCI-H226 lung

Row | Compound | GI50 (ACHN renal) [µM] | TGI (ACHN renal) [µM] | GI50 (CAKI-1 renal) [µM] | TGI (CAKI-1 renal) [µM] | GI50 (HL-60(TB) leukemia) [µM] | TGI (HL-60(TB) leukemia) [µM] | GI50 (M14 melanoma) [µM] | TGI (M14 melanoma) [µM] | GI50 (NCI-H23 lung) [µM] | TGI (NCI-H23 lung) [µM] | GI50 (SK-MEL-2 melanoma) [µM] | TGI (SK-MEL-2 melanoma) [µM] | GI50 (SNB-75 CNS) [µM] | TGI (SNB-75 CNS) [µM] | GI50 (SR leukemia) [µM] | TGI (SR leukemia) [µM] | TGI (IGROV1 ovarian) [µM] | TGI (NCI-H226 lung) [µM] | GI50 (IGROV1 ovarian) [µM] | GI50 (NCI-H226 lung) [µM]
1 | Cc1ccc(Sc2sc(-c3ccccc3)nc2[P+](c2ccccc2)(c2ccccc2)c2ccccc2)cc1 | 0.268 | 0.933 | 0.329 | 1.04 | 0.194 | 0.521 | 0.326 | 1.3 | 0.27 | 0.811 | 0.275 | 0.808 | 0.21 | 0.759 | 0.368 | 3.77 | – | – | – | –
2 | N#C/C(=C\c1ccc(C(O)P(=O)(O)O)cc1)C(N)=O (stereo unspecified) | – | > 100 | – | – | – | > 100 | – | > 100 | – | > 100 | – | > 100 | – | – | – | – | > 100 | > 100 | – | –
3 | Nc1ncnc2c1cnn2Cc1ccc(Cl)cc1 | – | > 100 | 31.8 | > 100 | – | > 100 | – | > 100 | – | > 100 | > 100 | > 100 | – | > 100 | – | – | > 100 | > 100 | > 100 | –
4 | N#Cc1ccc2c(c1)C(=O)c1c-2n(CCCN)c(=O)c2cc([N+](=O)[O-])ccc12 | 0.0699 | 1.18 | 0.0285 | 1.54 | 1.37 | 3.56 | 0.467 | 2.08 | 0.353 | 2.39 | 0.0534 | 1.29 | 0.288 | 1.24 | 0.0184 | 1.26 | 1.24 | – | 0.0712 | –
5 | CCNCCCn1c2c(c3ccc([N+](=O)[O-])cc3c1=O)C(=O)c1cc(OC)cnc1-2 | 0.0313 | 0.144 | 0.0406 | 2.3 | 0.037 | 0.657 | 0.0408 | 0.437 | 0.0436 | 0.323 | 0.349 | 1.9 | 0.126 | 1.54 | – | 1.27 | 1.45 | – | 0.184 | –
6 | N#CC1C2CCC3(CC2CCN1C(=O)c1ccccc1)OCCO3 (stereo unspecified) | – | > 100 | – | – | – | > 100 | – | > 100 | – | > 100 | – | 61.9 | – | > 100 | – | > 100 | > 100 | – | – | –
7 | O=C1CS/C(=N\S(=O)(=O)c2ccc(N3N=C4c5ccccc5CC4C3c3ccc(Cl)cc3)cc2)N1c1ccccc1 (stereo unspecified) | 27.7 | 66.5 | 35.8 | > 100 | 23.1 | 48.7 | 59.4 | > 100 | – | – | > 100 | > 100 | – | – | 11.4 | 28.1 | > 100 | > 100 | 37.8 | 45.1
8 | CSc1ncnc2c1CCN2 | – | – | – | – | – | – | > 100 | > 100 | > 100 | > 100 | > 100 | > 100 | – | – | – | – | > 100 | – | > 100 | –
9 | CC(C)C(=O)/C=C/c1ccc(Cl)c(Cl)c1 | – | 32.7 | – | – | – | 47 | – | 31.9 | – | 36.5 | – | 31.9 | – | – | – | 56.8 | 40.4 | – | – | –
10 | NC(CC1=CCC=CC1)C(=O)O (stereo unspecified) | – | > 100 | – | > 100 | – | – | – | > 100 | – | > 100 | – | > 100 | – | > 100 | – | – | > 100 | – | – | –
11 | Clc1ccc(Nc2ccnc(NCCCNc3ccnc4cc(Cl)ccc34)n2)cc1 | 1.57 | 3.04 | 1.43 | 2.83 | – | – | – | – | 1.79 | 3.53 | 1.98 | 3.61 | 1.23 | 2.5 | – | – | – | – | – | –
12 | COc1cc2c(c(OC)c1OC)-c1ccc(OC)c(=O)cc1[C@@H](N(C)C=O)CC2 | – | > 100 | – | > 100 | – | 0.0329 | – | > 65.6 | – | > 100 | – | 0.0487 | – | 0.615 | – | – | > 100 | – | – | –
13 | C1=Nc2ccccc2C=Nc2ccccc2C=Nc2ccccc2C=Nc2ccccc21.[Cl-].[Pt+2] | 19 | 49 | 31.4 | 62.5 | 3.95 | 22.4 | 30.2 | > 100 | – | – | – | – | – | – | – | – | 49.5 | – | 18.8 | –
14 | CC(C)c1ccc(NC(=S)NC(=O)c2ccccc2)cc1 | – | 55.9 | – | 55.5 | – | 32.3 | – | 40.7 | – | 68 | – | 35.8 | – | – | – | – | 68.4 | – | – | –
15 | COc1ccc(N(/C=C/C(=O)C(F)(F)F)CC(=O)c2ccc(Cl)c(Cl)c2)cc1 | 12.2 | 25.1 | 15.6 | 34.7 | – | – | 12.7 | 25.6 | 17.5 | 32.3 | 19.6 | 44 | – | – | – | – | 60.9 | 37.9 | 22.8 | 18.5
16 | CC(=O)OC1Oc2ccccc2-c2oc(=O)c(-c3cc4ccccc4oc3=O)cc21 (stereo unspecified) | 14.1 | 29.6 | 26.9 | 66.1 | 39 | > 100 | 36.6 | > 100 | 24 | 52.4 | 35 | > 100 | 17.3 | 34.5 | – | – | 48.6 | 35.4 | 20.5 | 17.1
17 | C=C1C[C@@]2(C)C(CC[C@]3(C)C2CC=C2C4CC(C)(C)C[C@@H](OC(=O)/C(C)=C\C)[C@]4(C(=O)O)CC[C@]23C)C(C)(C)C1=O (stereo partly specified) | 2.04 | 4.12 | 1.88 | 4.72 | 2.56 | 7.08 | 2.39 | 8.49 | 2.87 | 11.1 | 5.93 | 24.4 | – | – | 1.55 | 8.92 | 10.1 | 6.16 | 3.05 | 2.23
